The text below walks through data of patent US12310975B2, “Modulators of BCL6 proteolysis and associated methods of use” (Arvinas Operations, Inc., priority 2019, dated 2025).

By IC50 is commonly meant the concentration that gives 50% inhibition. What is called Dmax is the largest share of the target that was removed. Higher therefore signals a fuller loss of target.

The first assay addresses BCL6 (Homo sapiens (Human), UniProt P41182). As to the kind of experiment: Immunofluorescence high content imaging of BCL6 degradation in T47D cells. Format: cell-based.
Details: not given
Put shortly: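 Following a 3-day incubation with serially diluted bifunctional compounds (final top 0.1 or 1 μM), T47D cells were PFA-fixed and immunostained for BCL6. Nuclear BCL6 signal was captured on a high-content imager.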
For `CCn1c(=O)c(OCC(=O)NC)cc2cc(Nc3nc(N4CCO[C@H](COc5ccc6c(c5)C(=O)N(C5CCC(=O)NC5=O)C6=O)C4)ncc3Cl)ccc21` (stereo partly drawn) [compound 294, 2-{[6-({5-chloro-2-[(2S)-2-({[2-(2,6-dioxopiperidin-3-yl)-1,3-dioxo-2,3-dihydro-1H-isoindol-5-yl]oxy}methyl)morpholin-4-yl]pyrimidin-4-yl}amino)-1-ethyl-2-oxo-1,2-dihydroquinolin-3-yl]oxy}-N-methylacetamide], the IC50 was in the range of 50 to 100 nM.
On the same count and under the same terms, the result for `CCn1c(=O)c(OCC(=O)NC)cc2cc(Nc3nc(N4CCC(OC5CC6(C5)CN(c5ccc7c(c5)C(=O)N(C5CCC(=O)NC5=O)C7=O)C6)CC4)ncc3Cl)ccc21` (stereo not drawn) [compound 303, 2-{[6-({5-chloro-2-[4-({2-[2-(2,6-dioxopiperidin-3-yl)-1,3-dioxo-2,3-dihydro-1H-isoindol-5-yl]-2-azaspiro[3.3]heptan-6-yl}oxy)piperidin-1-yl]pyrimidin-4-yl}amino)-1-ethyl-2-oxo-1,2-dihydroquinolin-3-yl]oxy}-N-methylacetamide] reads less than 10 nM; that for `CNC(=O)COc1cc2cc(Nc3nc(N4CCC(OC5CCCN(c6ccc7c(c6)C(=O)N(C6CCC(=O)NC6=O)C7=O)CC5)CC4)ncc3Cl)ccc2n(C)c1=O` (stereo not drawn) [compound 242, 2-((6-((5-chloro-2-(4-((1-(2-(2,6-dioxopiperidin-3-yl)-1,3-dioxoisoindolin-5-yl)azepan-4-yl)oxy)piperidin-1-yl)pyrimidin-4-yl)amino)-1-methyl-2-oxo-1,2-dihydroquinolin-3-yl)oxy)-N-methylacetamide], not below 100 nM; that for `CNC(=O)COc1cc2cc(Nc3nc(N4CCC(CN5CCC(n6cnc7c(C(=O)NC8CCC(=O)NC8=O)cccc76)CC5)CC4)ncc3Cl)ccc2n(C)c1=O` (stereo not drawn) [compound 283, 1-[1-({1-[5-chloro-4-({1-methyl-3-[(methylcarbamoyl)methoxy]-2-oxo-1,2-dihydroquinolin-6-yl}amino)pyrimidin-2-yl]piperidin-4-yl}methyl)piperidin-4-yl]-N-(2,6-dioxopiperidin-3-yl)-1H-1,3-benzodiazole-4-carboxamide], not below 100 nM.

Staying with this assay, now noted: T47D.
Turning to `CCn1c(=O)c(OCC(=O)NC)cc2cc(Nc3nc(N4CCO[C@H](COc5ccc6c(c5)C(=O)N(C5CCC(=O)NC5=O)C6=O)C4)ncc3Cl)ccc21` (stereo partly drawn) [compound 294, 2-{[6-({5-chloro-2-[(2S)-2-({[2-(2,6-dioxopiperidin-3-yl)-1,3-dioxo-2,3-dihydro-1H-isoindol-5-yl]oxy}methyl)morpholin-4-yl]pyrimidin-4-yl}amino)-1-ethyl-2-oxo-1,2-dihydroquinolin-3-yl]oxy}-N-methylacetamide], the greatest degradation seen (Dmax) was less than 50%.
Same read-out and setting: the result for `CCn1c(=O)c(OCC(=O)NC)cc2cc(Nc3nc(N4CCC(OC5CC6(C5)CN(c5ccc7c(c5)C(=O)N(C5CCC(=O)NC5=O)C7=O)C6)CC4)ncc3Cl)ccc21` (stereo not drawn) [compound 303, 2-{[6-({5-chloro-2-[4-({2-[2-(2,6-dioxopiperidin-3-yl)-1,3-dioxo-2,3-dihydro-1H-isoindol-5-yl]-2-azaspiro[3.3]heptan-6-yl}oxy)piperidin-1-yl]pyrimidin-4-yl}amino)-1-ethyl-2-oxo-1,2-dihydroquinolin-3-yl]oxy}-N-methylacetamide] reads 50 to 70%.

Staying with this assay, now noted: T47D cells.
For the compound `CNC(=O)COc1cc2cc(Nc3nc(N4CCC[C@H](COc5cccc6c5C(=O)N(C5CCC(=O)NC5=O)C6=O)C4)ncc3Cl)ccc2n(C2CCCCC2)c1=O` (stereo partly drawn) [compound 343, 2-{[6-({5-chloro-2-[(3S)-3-({[2-(2,6-dioxopiperidin-3-yl)-1,3-dioxo-2,3-dihydro-1H-isoindol-4-yl]oxy}methyl)piperidin-1-yl]pyrimidin-4-yl}amino)-1-cyclohexyl-2-oxo-1,2-dihydroquinolin-3-yl]oxy}-N-methylacetamide], the maximal degradation (Dmax) lay within 50 to 70% and the IC50 is less than 10 nM.
On to `CNC(=O)COc1cc2cc(Nc3nc(N4CCC(OC5CC6(C5)CN(c5ccc7c(c5)CN(C5CCC(=O)NC5=O)C7=O)C6)CC4)ncc3Cl)ccc2n(C(C)C)c1=O` (stereo not drawn) [compound 412, 2-{[6-({5-chloro-2-[4-({2-[2-(2,6-dioxopiperidin-3-yl)-1-oxo-2,3-dihydro-1H-isoindol-5-yl]-2-azaspiro[3.3]heptan-6-yl}oxy)piperidin-1-yl]pyrimidin-4-yl}amino)-2-oxo-1-(propan-2-yl)-1,2-dihydroquinolin-3-yl]oxy}-N-methylacetamide], for which the greatest degradation seen (Dmax) is not below 70% and the half-inhibitory concentration (IC50) is less than 10 nM.
`CNC(=O)COc1cc2cc(Nc3nc(N4CCC(OC5CC6(C5)CN(c5cccc7c5C(=O)N(C5CCC(=O)NC5=O)C7=O)C6)CC4)ncc3Cl)ccc2n(C(C)C)c1=O` (stereo not drawn) [compound 363, 2-{[6-({5-chloro-2-[4-({2-[2-(2,6-dioxopiperidin-3-yl)-1,3-dioxo-2,3-dihydro-1H-isoindol-4-yl]-2-azaspiro[3.3]heptan-6-yl}oxy)piperidin-1-yl]pyrimidin-4-yl}amino)-2-oxo-1-(propan-2-yl)-1,2-dihydroquinolin-3-yl]oxy}-N-methylacetamide] yielded a maximal degradation (Dmax) not below 70% and an IC50 of less than 10 nM.
As for `CNC(=O)COc1cc2cc(Nc3nc(N4CCC(CN5CCC6(CCN(c7ccc8c(c7)CN(C7CCC(=O)NC7=O)C8=O)C6)C5)CC4)ncc3Cl)ccc2n(C(C)C)c1=O` (stereo not drawn) [compound 437, 2-{[6-({5-chloro-2-[4-({7-[2-(2,6-dioxopiperidin-3-yl)-1-oxo-2,3-dihydro-1H-isoindol-5-yl]-2,7-diazaspiro[4.4]nonan-2-yl}methyl)piperidin-1-yl]pyrimidin-4-yl}amino)-2-oxo-1-(propan-2-yl)-1,2-dihydroquinolin-3-yl]oxy}-N-methylacetamide], the Dmax was not below 70% and the IC50 is less than 10 nM.
Taken in the same sequence, the figures for `CNC(=O)COc1cc2cc(Nc3nc(N4CCN(CC5CCN(c6ccc7c(c6)CN(C6CCC(=O)NC6=O)C7=O)CC5)CC4)ncc3Cl)ccc2n(C(C)C)c1=O` (stereo not drawn) [compound 388, 2-{[6-({5-chloro-2-[4-({1-[2-(2,6-dioxopiperidin-3-yl)-1-oxo-2,3-dihydro-1H-isoindol-5-yl]piperidin-4-yl}methyl)piperazin-1-yl]pyrimidin-4-yl}amino)-2-oxo-1-(propan-2-yl)-1,2-dihydroquinolin-3-yl]oxy}-N-methylacetamide] were 50 to 70% and less than 10 nM.
Consider `CNC(=O)COc1cc2cc(Nc3nc(N4CCN(CC5CCN(c6ccc(C(=O)NC7CCC(=O)NC7=O)[n+]([O-])c6)CC5)CC4)ncc3Cl)ccc2n(C)c1=O` (stereo not drawn) [compound 377, 5-[4-({4-[5-chloro-4-({1-methyl-3-[(methylcarbamoyl)methoxy]-2-oxo-1,2-dihydroquinolin-6-yl}amino)pyrimidin-2-yl]piperazin-1-yl}methyl)piperidin-1-yl]-2-[(2,6-dioxopiperidin-3-yl)carbamoyl]pyridin-1-ium-1-olate], for which the half-inhibitory concentration (IC50) was not below 100 nM.

The assay is the same for the next values; noted with them: class symbols A-D, read-out: EC50 (nM)*.
On to `CNC(=O)COc1cc2cc(Nc3nc(N4CCC(OCCOCCOCCOCc5ccc(Oc6ccc7c(c6)CN(C6CCC(=O)NC6=O)C7=O)cc5)CC4)ncc3Cl)ccc2n(C)c1=O` (stereo not drawn) [compound 135, 2-((6-((5-chloro-2-(4-(2-(2-(2-((4-((2-(2,6-dioxopiperidin-3-yl)-1-oxoisoindolin-5-yl)oxy)benzyl)oxy)ethoxy)ethoxy)ethoxy)piperidin-1-yl)pyrimidin-4-yl)amino)-1-methyl-2-oxo-1,2-dihydroquinolin-3-yl)oxy)-N-methylacetamide], for which the DC50 is more than 100 nM.
In the case of `CNC(=O)COc1cc2cc(Nc3nc(N4CCC(OCCOCCOCCOCCOCCOCCOc5cc(-c6scnc6C)ccc5CNC(=O)[C@@H]5C[C@@H](O)CN5C(=O)C(c5cc(C)no5)C(C)C)CC4)ncc3Cl)ccc2n(C)c1=O` (stereo partly drawn) [compound 58, (2S,4R)-N-(2-((17-((1-(5-chloro-4-((1-methyl-3-(2-(methylamino)-2-oxoethoxy)-2-oxo-1,2-dihydroquinolin-6-yl)amino)pyrimidin-2-yl)piperidin-4-yl)oxy)-3,6,9,12,15-pentaoxaheptadecyl)oxy)-4-(4-methylthiazol-5-yl)benzyl)-4-hydroxy-1-(3-methyl-2-(3-methylisoxazol-5-yl)butanoyl)pyrrolidine-2-carboxamide], the DC50 was more than 100 nM.
Same read-out and setting: the result for `CNC(=O)COc1cc2cc(Nc3nc(N4CCC(OCCOCCOCCOc5ccc6c(c5)C(=O)N(C5CCC(=O)NC5=O)C6=O)CC4)ncc3Cl)ccc2n(C)c1=O` (stereo not drawn) [compound 52, 2-((6-((5-chloro-2-(4-(2-(2-(2-((2-(2,6-dioxopiperidin-3-yl)-1,3-dioxoisoindolin-5-yl)oxy)ethoxy)ethoxy)ethoxy)piperidin-1-yl)pyrimidin-4-yl)amino)-1-methyl-2-oxo-1,2-dihydroquinolin-3-yl)oxy)-N-methylacetamide] reads 50 to 100 nM; that for `CNC(=O)COc1cc2cc(Nc3nc(N4CCC(OCCCOCCCOc5cc(-c6scnc6C)ccc5CNC(=O)[C@@H]5C[C@@H](O)CN5C(=O)C(c5cc(C)no5)C(C)C)CC4)ncc3Cl)ccc2n(C)c1=O` (stereo partly drawn) [compound 144, (2S,4R)-N-(2-(3-(3-((1-(5-chloro-4-((1-methyl-3-(2-(methylamino)-2-oxoethoxy)-2-oxo-1,2-dihydroquinolin-6-yl)amino)pyrimidin-2-yl)piperidin-4-yl)oxy)propoxy)propoxy)-4-(4-methylthiazol-5-yl)benzyl)-4-hydroxy-1-(3-methyl-2-(3-methylisoxazol-5-yl)butanoyl)pyrrolidine-2-carboxamide], more than 100 nM; that for `CNC(=O)COc1cc2cc(Nc3nc(N4CCC(OCc5cccc(COCCOCCOCCOc6ccc7c(c6)CN(C6CCC(=O)NC6=O)C7=O)c5)CC4)ncc3Cl)ccc2n(C)c1=O` (stereo not drawn) [compound 97, 2-((6-((5-chloro-2-(4-((3-((2-(2-(2-((2-(2,6-dioxopiperidin-3-yl)-1-oxoisoindolin-5-yl)oxy)ethoxy)ethoxy)ethoxy)methyl)benzyl)oxy)piperidin-1-yl)pyrimidin-4-yl)amino)-1-methyl-2-oxo-1,2-dihydroquinolin-3-yl)oxy)-N-methylacetamide], 50 to 100 nM.
Consider `CNC(=O)COc1cc2cc(Nc3nc(N4CCC(Cc5cn(CCOCCOCCOc6ccc7c(c6)C(=O)N(C6CCC(=O)NC6=O)C7=O)nn5)CC4)ncc3Cl)ccc2n(C)c1=O` (stereo not drawn) [compound 130, 2-((6-((5-chloro-2-(4-((1-(2-(2-(2-((2-(2,6-dioxopiperidin-3-yl)-1,3-dioxoisoindolin-5-yl)oxy)ethoxy)ethoxy)ethyl)-1H-1,2,3-triazol-4-yl)methyl)piperidin-1-yl)pyrimidin-4-yl)amino)-1-methyl-2-oxo-1,2-dihydroquinolin-3-yl)oxy)-N-methylacetamide], for which the DC50 is more than 100 nM.
On the same count and under the same terms, the result for `CNC(=O)COc1cc2cc(Nc3nc(N4CCC(OCc5ccc(OCCOCCOCCOc6ccc7c(c6)CN(C6CCC(=O)NC6=O)C7=O)cc5)CC4)ncc3Cl)ccc2n(C)c1=O` (stereo not drawn) [compound 118, 2-((6-((5-chloro-2-(4-((4-(2-(2-(2-((2-(2,6-dioxopiperidin-3-yl)-1-oxoisoindolin-5-yl)oxy)ethoxy)ethoxy)ethoxy)benzyl)oxy)piperidin-1-yl)pyrimidin-4-yl)amino)-1-methyl-2-oxo-1,2-dihydroquinolin-3-yl)oxy)-N-methylacetamide] reads 50 to 100 nM.
